Patent US7807676B2, “Diketo-Piperazine and Piperidine derivatives as antiviral agents” (priority 2006, dated 2010)
Where a name gives a salt, the structure may show the parent alone.

Tested on: HIV-1 single-round infectious reporter virus
Test: Single-round infectious HIV-1 luciferase reporter virus infection of HeLa CD4 cells (antiviral EC50)
Type: cell-based
Conditions: Human immunodeficiency virus 1, HeLa, read-out: EC50 Group from Table 3
Method in brief: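 Env-pseudotyped single-round HIV-1 reporter virus (env-deleted provirus with luciferase in place of nef, made in 293 cells) infected HeLa CD4 cells at MOI ~0.01 with compound present, up to 10 μM final. Luciferase luminescence read after 72 h at 37 °C; EC50 from four-parameter logistic fit of % inhibition over 10 concentrations.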

Compound	EC50
C[C@@H]1CN(c2snnc2-c2ccccc2)CCN1C(=O)C(=O)c1c[nH]c2c(-n3ccnn3)ncc(F)c12 [D-30]	< 0.5 µM
COc1cnc(-n2cnc(C)n2)c2[nH]cc(C(=O)C(=O)N3CCN(c4nnnn4-c4ccccc4)C[C@@H]3C)c12 [A-31]	< 0.5 µM
O=C(C(=O)N1CCN(c2cn(Cc3ccccn3)nc2-c2ccccc2)CC1)c1c[nH]c2c(-n3ccnn3)ncc(F)c12 [G-7b]	< 0.5 µM
CN(C)CCNc1ccn(-c2ncc(F)c3c(C(=O)C(=O)N4CCN(c5nnnn5-c5ccccc5)CC4)c[nH]c23)n1 [B-23, 1-(7-(3-(2-(dimethylamino)ethylamino)-1H-pyrazol-1-yl)-4-fluoro-1H-pyrrolo[2,3-c]pyridin-3-yl)-2-(4-(1-phenyl-1H-tetrazol-5-yl)piperazin-1-yl)ethane-1,2-dione TFA]	< 0.5 µM
O=C(C(=O)N1CCN(c2nnnn2-c2ccccc2)CC1)c1c[nH]c2c(-c3cc[nH]n3)ncc(F)c12 [B-28]	< 0.5 µM
COc1cnc(-c2cc(C(=O)NCCCN3CCN(C)CC3)[nH]n2)c2[nH]cc(C(=O)C(=O)N3CCN(c4nnnn4-c4ccccc4)CC3)c12 [B-10, 3-(4-methoxy-3-(2-oxo-2-(4-(1-phenyl-1H-tetrazol-5-yl)piperazin-1-yl)acetyl)-1H-pyrrolo[2,3-c]pyridin-7-yl)-N-(3-(4-methylpiperazin-1-yl)propyl)-1H-pyrazole-5-carboxamide.TFA]	< 0.5 µM
COc1nc(N2CCN(C(=O)C(=O)c3c[nH]c4c(-n5cnc(C)n5)ncc(OC)c34)CC2)n(-c2ccccc2)n1 [G-29b]	< 0.5 µM
COc1cnc(-n2ccnn2)c2[nH]cc(C(=O)C(=O)N3C(C)CN(c4nnnn4-c4ccccc4)CC3C)c12 (centres unmarked) [A-58]	< 0.5 µM
COc1cnc(-n2cnc(C)n2)c2[nH]cc(C(=O)C(=O)N3CCN(c4ccnn4-c4ccccn4)CC3)c12 [E-15, 1-(4-methoxy-7-(3-methyl-1H-1,2,4-triazol-1-yl)-1H-pyrrolo[2,3-c]pyridinyl-3-yl)-2-(4-(1-(pyridin-2-yl)-1H-pyrazol-5-yl)piperazin-1-yl)ethane-1,2-dione]	< 0.5 µM
CCOc1cccnc1N1CCN(C(=O)C(=O)c2c[nH]c3c(-n4cnc(C)n4)ncc(OC)c23)CC1 [A-63]	< 0.5 µM
COc1cnc(-c2ccc(N3CCN(C(=O)NC(C)C)CC3)cc2)c2[nH]cc(C(=O)C(=O)N3CCN(c4nnnn4-c4ccccn4)CC3)c12 [B-87]	< 0.5 µM
O=C(C(=O)N1CCN(c2c[nH]nc2-c2ccccc2)CC1)c1c[nH]c2c(-n3ccnn3)ncc(F)c12 [G-5a]	< 0.5 µM
CN(C)CCCNC(=O)c1cccnc1N1CCN(C(=O)C(=O)c2c[nH]c3c(-n4ccnn4)ncc(F)c23)CC1 [D-37]	> 0.5 µM
COc1cnc(-c2cc(CO)[nH]n2)c2[nH]cc(C(=O)C(=O)N3CCN(c4nnnn4-c4ccccn4)CC3)c12 [B-67]	< 0.5 µM
O=C(C(=O)N1CCC(c2nnc(-c3ccccc3)o2)CC1)c1c[nH]c2c(-n3ccnn3)ncc(F)c12 [A-33]	> 0.5 µM
COc1cnc(-c2ccc(N3CCNCC3)cc2)c2[nH]cc(C(=O)C(=O)N3CCN(c4nnnn4-c4ccccn4)CC3)c12 [B-82]	< 0.5 µM
O=C(C(=O)N1CCN(C2=NCCN2c2ccccc2)CC1)c1c[nH]c2c(-n3ccnn3)ncc(F)c12 [G-12a]	< 0.5 µM
O=C(C(=O)N1CCN(c2cc(O)nnc2-c2ccccc2)CC1)c1c[nH]c2c(-n3ccnn3)ncc(F)c12 [A-6]	< 0.5 µM
COc1cnc(-c2cc(C(=O)NCCOCCO)[nH]n2)c2[nH]cc(C(=O)C(=O)N3CCN(c4nnnn4-c4ccccc4)CC3)c12 [B-9, N-(2-(2-hydroxyethoxy)ethyl)-3-(4-methoxy-3-(2-oxo-2-(4-(1-phenyl-1H-tetrazol-5-yl)piperazin-1-yl)acetyl)-1H-pyrrolo[2,3-c]pyridin-7-yl)-1H-pyrazole-5-carboxamide.TFA]	< 0.5 µM
COc1cnc(-n2cnc(C)n2)c2[nH]cc(C(=O)C(=O)N3CCN(C4=C(c5ccccc5)C(=O)c5ccccc54)CC3)c12 [D-7]	< 0.5 µM
CCOC(=O)CCCCC(=O)c1cccnc1N1CCN(C(=O)C(=O)c2c[nH]c3c(-n4ccnn4)ncc(F)c23)CC1 [D-42]	> 0.5 µM

Compound	EC50
O=C(c1nccs1)c1cccnc1N1CCN(C(=O)C(=O)c2c[nH]c3cccc(F)c23)CC1 [A-67]	> 0.5 µM
COc1cnc(-n2cnc(C)n2)c2[nH]cc(C(=O)C(=O)N3CCN(c4nc5ccccc5nc4-n4nc(C)cc4C)CC3)c12 [D-9]	> 0.5 µM
CCOc1cccnc1N1CCN(C(=O)C(=O)c2c[nH]c3c(-n4ccnn4)ncc(F)c23)CC1 [A-62]	< 0.5 µM
CN(C)CCCNC(=O)c1cc(-c2ncc(F)c3c(C(=O)C(=O)N4CCN(c5c[nH]nc5-c5ccccc5)CC4)c[nH]c23)n[nH]1 [B-53]	< 0.5 µM
O=C(C(=O)N1CCN(c2nnnn2-c2ncco2)CC1)c1c[nH]c2c(-n3ccnn3)ncc(F)c12 [E-6]	< 0.5 µM
COc1cnc(-n2cnc(C)n2)c2[nH]cc(C(=O)C(=O)N3CCN(c4ncccc4C(=O)NCCCN(C)C)CC3)c12 [D-51]	> 0.5 µM
COc1cnc(-n2cnc(C)n2)c2[nH]cc(C(=O)C(=O)N3CCN(c4nc5ccccc5n4-c4ccccc4)CC3)c12 [A-38]	< 0.5 µM
COc1cnc(-c2cccnc2)c2[nH]cc(C(=O)C(=O)N3CCN(c4nnnn4-c4ccccn4)CC3)c12 [H-3]	< 0.5 µM
CN1CCN(C(=O)c2cc(-c3ncc(F)c4c(C(=O)C(=O)N5CCN(c6nnnn6-c6ccccc6)CC5)c[nH]c34)n[nH]2)CC1 [F-1]	< 0.5 µM
CCOC(=O)CCC(=O)c1cccnc1N1CCN(C(=O)C(=O)c2c[nH]c3c(-n4ccnn4)ncc(F)c23)CC1 [D-40]	> 0.5 µM
CN(C)c1cc(N2CCN(C(=O)C(=O)c3c[nH]c4c(-n5ccnn5)ncc(F)c34)CC2)c(-c2ccccc2)nn1 [G-14a]	< 0.5 µM
COc1cnc(C(=O)NC2CC2)c2[nH]cc(C(=O)C(=O)N3CCN(c4nnnn4-c4ccccn4)CC3)c12 [B-66]	< 0.5 µM
COc1cnc(-n2cnc(C)n2)c2[nH]cc(C(=O)C(=O)N3CCN(c4nnnn4-c4cccc(N)n4)CC3)c12 [E-12b]	< 0.5 µM
Nc1ccn(-c2ncc(F)c3c(C(=O)C(=O)N4CCN(c5nnnn5-c5ccccc5)CC4)c[nH]c23)n1 [B-4, 1-(7-(3-amino-1H-pyrazol-1-yl)-4-fluoro-1H-pyrrolo[2,3-c]pyridin-3-yl)-2-(4-(1-phenyl-1H-tetrazol-5-yl)piperazin-1-yl)ethane-1,2-dione]	< 0.5 µM
O=C(C(=O)N1CCN(c2ccccc2C(F)(F)F)CC1)c1c[nH]c2c(-n3ccnn3)ncc(F)c12 [A-52]	> 0.5 µM
COc1cnc(-c2cc(C(=O)NCCN3CCNCC3)[nH]n2)c2[nH]cc(C(=O)C(=O)N3CCN(c4nnnn4-c4ccccc4)CC3)c12 [B-14, 3-(4-methoxy-3-(2-oxo-2-(4-(1-phenyl-1H-tetrazol-5-yl)piperazin-1-yl)acetyl)-1H-pyrrolo[2,3-c]pyridin-7-yl)-N-(2-(piperazin-1-yl)ethyl)-1H-pyrazole-5-carboxamide.TFA]	< 0.5 µM
O=C(NCCCN1CCCC1=O)c1cc(-c2ncc(F)c3c(C(=O)C(=O)N4CCN(c5nnnn5-c5ccccc5)CC4)c[nH]c23)n[nH]1 [F-12]	< 0.5 µM
O=C(NCCO)c1cc(-c2ncc(F)c3c(C(=O)C(=O)N4CCN(c5nnnn5-c5ccccc5)CC4)c[nH]c23)n[nH]1 [B-37]	< 0.5 µM
COc1cccc(-n2nnnc2N2CCN(C(=O)C(=O)c3c[nH]c4c(-n5ccnn5)ncc(F)c34)CC2)c1 [E-9]	< 0.5 µM
O=C(C(=O)N1[C@@H]2CC[C@H]1CN(c1nnnn1-c1ccccc1)C2)c1c[nH]c2c(-n3ccnn3)ncc(F)c12 [A-71]	< 0.5 µM
